Reference: patent publication US9420799B2, “Method for controlling nematode pests” (Syngenta Participations AG, priority 2011, dated 2016)

Tested on: soybean cyst nematode (SCN)
Test: Yield response field trials: soybean seed treated with Pasteuria nishizawae, compared with seed not treated with Pasteuria
Format: in vivo, Heterodera glycines
Details: for Yield Response for Resistant Varieties / Yield Response for Susceptible Varieties: approx. 1×10^7 spores/seed, percent yield increase vs seeds not treated with Pasteuria, averaged; for Yield Response for Susceptible Varieties: SCN susceptible soybean varieties
Experimental: Yield Response Experiment
Multiple field trials were conducted across the United States Midwest region. Baseline nematode populations were determined by sampling from 4 untreated plots. Samples were taken (10 cores per plot) at a depth of 6-8 inches (approx. 15.2-20.3 cm). Samples were stored in a cooler until laboratory assays (eggs/100 cc) were performed.
To allow for sufficient viability to assess results properly, both SCN resistant and susceptible varieties were treated with an insecticide and fungicide seed treatment (CRUISERMAXX seed treatment for beans available from Syngenta Crop Protection, LLC including thiamethoxam (22.61%); mefenoxam (1.70%) and fludioxonil (1.12%)). In addition for some test groups Pasteuria nishizawae treatment was applied at a rate of approximately 1×10^7 spores/seed. Percent yield increase was determined by comparing seeds treated with Pasteuria to those not treated with Pasteuria.
The results of 119 separate trials were sorted according to initial SCN pressure at trial location. Yield data were averaged.

Pasteuria nishizawae
Yield Response for Resistant Varieties (SCN resistant soybean varieties, SCN pressure 0 eggs/100 cc): 0.3%
Yield Response for Resistant Varieties (SCN resistant soybean varieties, SCN pressure 1-500 eggs/100 cc): 0.7%
Yield Response for Resistant Varieties (SCN resistant soybean varieties, SCN pressure 501-1000 eggs/100 cc): 2.6%
Yield Response for Resistant Varieties (SCN resistant soybean varieties, SCN pressure >1000 eggs/100 cc): 5.2%
Yield of resistant varieties, result in words (SCN resistant soybean varieties, all pest pressures): showed increase yield over non-Pasteuria treated soybean seed regardless of pest pressure
Yield Response for Susceptible Varieties (SCN pressure 0 eggs/100 cc): 1.3%
Yield Response for Susceptible Varieties (SCN pressure 1-500 eggs/100 cc): 1.0%
Yield Response for Susceptible Varieties (SCN pressure 501-1000 eggs/100 cc): 0.8%
Yield Response for Susceptible Varieties (SCN pressure >1000 eggs/100 cc): 0.0%
Yield of varieties with no resistance or tolerance to SCN, result in words (soybean varieties having no resistance or tolerance to SCN, benefit mostly in absence of or with low pest pressure): generally benefitted from treatment with Pasteuria
